Test results as given in BindingDB's records for patent WO2022076764 (BRISTOL-MYERS SQUIBB COMPANY, 2022).

Legend:
[1] = biological target: T1, N-formyl peptide receptor 2 (Homo sapiens, UniProt P25090)
T1 sequence (P25090 whole entry): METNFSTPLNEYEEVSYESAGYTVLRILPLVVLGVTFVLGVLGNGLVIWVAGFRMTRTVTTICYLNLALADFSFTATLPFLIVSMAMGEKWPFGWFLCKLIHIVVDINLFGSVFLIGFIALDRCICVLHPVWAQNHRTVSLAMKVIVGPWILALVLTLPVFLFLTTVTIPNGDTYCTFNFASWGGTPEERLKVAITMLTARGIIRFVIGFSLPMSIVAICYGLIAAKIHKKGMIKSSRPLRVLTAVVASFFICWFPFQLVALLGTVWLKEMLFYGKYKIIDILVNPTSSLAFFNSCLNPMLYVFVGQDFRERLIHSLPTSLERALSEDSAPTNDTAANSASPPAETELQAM

fMet-Leu-Phe receptor = biological target: T2, fMet-Leu-Phe receptor (Homo sapiens, UniProt P21462)
T2 sequence (P21462 whole entry): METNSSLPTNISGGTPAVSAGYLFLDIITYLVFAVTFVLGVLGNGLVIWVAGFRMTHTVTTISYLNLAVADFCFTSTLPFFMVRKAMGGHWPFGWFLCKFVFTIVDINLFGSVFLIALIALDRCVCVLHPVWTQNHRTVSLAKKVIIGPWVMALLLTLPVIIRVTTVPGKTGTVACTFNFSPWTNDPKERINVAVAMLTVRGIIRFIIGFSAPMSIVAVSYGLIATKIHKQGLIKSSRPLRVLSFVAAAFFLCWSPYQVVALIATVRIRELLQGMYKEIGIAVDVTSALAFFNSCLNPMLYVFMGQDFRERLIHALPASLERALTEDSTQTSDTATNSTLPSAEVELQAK

| EC50 [1] | EC50 (fMet-Leu-Phe receptor) | SMILES |
| --- | --- | --- |
| 200 nM | 4 nM | COc1cc(F)c(-n2cc(-c3ccccc3)nc2NC(=O)c2ccc(OC(F)F)cc2)c(F)c1 [WO2022076764, Example 1] |
| 38 nM | 3 nM | COc1ccc(-n2cc(-c3ccccc3)nc2NC(=O)c2ccc(OC(F)F)cc2)cc1 [WO2022076764, Example 2] |
| 88 nM | 8 nM | COc1cccc(-c2cn(-c3c(F)cc(OC)cc3F)c(NC(=O)c3ccc(OC(F)F)cc3)n2)c1 [WO2022076764, Example 3] |
| 400 nM | 11 nM | COc1cc(F)c(-n2cc(-c3ccc(F)cc3)nc2NC(=O)c2ccc(OC(F)F)cc2)c(F)c1 [WO2022076764, Example 4] |
| 140 nM | 47 nM | COc1cc(F)c(-n2cc(-c3ccc(Cl)c(C)c3)nc2NC(=O)c2ccc(OC(F)F)cc2)c(F)c1 [WO2022076764, Example 5] |
| 120 nM | 76 nM | COc1cc(F)c(-n2cc(-c3ccc(C(F)(F)F)cc3)nc2NC(=O)c2ccc(OC(F)F)cc2)c(F)c1 [WO2022076764, Example 6] |
| 190 nM | 33 nM | COc1cc(F)c(-n2cc(-c3ccc(OC(F)F)cc3)nc2NC(=O)c2ccc(OC(F)F)cc2)c(F)c1 [WO2022076764, Example 7] |
| 230 nM | 8 nM | COc1cc(F)c(-n2c(NC(=O)c3ccc(OC(F)F)cc3)nc(-c3ccccc3)c2C)c(F)c1 [WO2022076764, Example 8] |
| 460 nM | 220 nM | COc1cc(F)c(-n2cc(-c3ccc4ccccc4c3)nc2NC(=O)c2ccc(OC(F)F)cc2)c(F)c1 [WO2022076764, Example 9] |
| 200 nM | 7 nM | COc1cc(F)c(-n2cc(-c3cccc(F)c3)nc2NC(=O)c2ccc(OC(F)F)cc2)c(F)c1 [WO2022076764, Example 10] |
| 140 nM | 24 nM | COc1cc(F)c(-n2cc(-c3ccc(Cl)cc3)nc2NC(=O)c2ccc(OC(F)F)cc2)c(F)c1 [WO2022076764, Example 11] |
| 450 nM | 15 nM | COc1cc(F)c(-n2cc(-c3cccc(Cl)c3)nc2NC(=O)c2ccc(OC(F)F)cc2)c(F)c1 [WO2022076764, Example 12] |
| 550 nM | 53 nM | COc1cc(F)c(-n2c(NC(=O)c3ccc(OC(F)F)cc3)nc(-c3ccc(Cl)cc3)c2C)c(F)c1 [WO2022076764, Example 13] |
| 160 nM | 39 nM | COc1ccc(-c2cn(-c3c(F)cc(OC)cc3F)c(NC(=O)c3ccc(OC(F)F)cc3)n2)cc1 [WO2022076764, Example 14] |
| 130 nM | 23 nM | COc1cc(F)c(-n2cc(-c3ccc(C)cc3)nc2NC(=O)c2ccc(OC(F)F)cc2)c(F)c1 [WO2022076764, Example 15] |
| 230 nM | 27 nM | COc1cc(F)c(-n2cc(-c3ccc(C#N)cc3)nc2NC(=O)c2ccc(OC(F)F)cc2)c(F)c1 [WO2022076764, Example 16] |
| 46 nM | 5 nM | COc1cc(F)c(-n2cc(-c3cccc(C#N)c3)nc2NC(=O)c2ccc(OC(F)F)cc2)c(F)c1 [WO2022076764, Example 17] |
| 400 nM | 51 nM | COc1cc(F)c(-n2cc(-c3ccc(Cl)c(Cl)c3)nc2NC(=O)c2ccc(OC(F)F)cc2)c(F)c1 [WO2022076764, Example 18] |
| 93 nM | 28 nM | COc1ccc(-n2cc(-c3ccc4c(c3)CCO4)nc2NC(=O)c2ccc(OC(F)F)cc2)cc1 [WO2022076764, Example 19] |
| 19 nM | 5 nM | COc1ccc(-n2cc(-c3ccnc(Cl)c3)nc2NC(=O)c2ccc(OC(F)F)cc2)cc1 [WO2022076764, Example 20] |
| 76 nM | 29 nM | COc1ccc(-n2cc(-c3ccc(F)cc3F)nc2NC(=O)c2ccc(OC(F)F)cc2)cc1 [WO2022076764, Example 21] |
| 140 nM | 86 nM | COc1ccc(-n2cc(-c3ccc4sccc4c3)nc2NC(=O)c2ccc(OC(F)F)cc2)cc1 [WO2022076764, Example 22] |
